Measurements: PMC2852246 (Journal of nuclear medicine : official publication, Society …, 2010)
Where “and” joins values, the source holds several entries; their conditions need not be identical. Identical values can stand only once. Like-named read-outs stand apart in the source and are kept apart here. Each block holds one compound with its values, some of them ahead of it.

Key:
[1] = Plasma protein binding by ultracentrifugation; format: in vitro ADME, human; conditions: healthy volunteers, mean ± SD
[2] = Percentage uptake in erythrocytes; format: in vitro ADME, human; conditions: healthy volunteers, no correction for trapped plasma, mean ± SD
[3] = Percentage injected dose in the urine of healthy volunteers; format: in vivo, human
[4] = Renal imaging and renogram parameters; format: in vivo, human
[5] = cited from earlier work
[6] = earlier study of 106 subjects referred for potential kidney donation; cited from earlier work
[7] = 106 subjects referred for potential kidney donation; cited from earlier work
[8] = cited from earlier work; remark: listed apart in the source
[9] = single dose of 10 mg, eight human volunteers; cited from earlier work
[10] = determined by Health Canada; cited from earlier work
[11] = cortical (parenchymal) region of interest, left kidney, n = 9
[12] = cortical (parenchymal) region of interest, right kidney, n = 9
[13] = whole-kidney region of interest, relative uptake, n = 9, mean (SD)

- plasma protein binding [1]: 75 ± 3%
- red cell uptake [2]: 17 ± 5%
- percent injected dose in the urine at 30 min ([3]; 30 min after injection): 69 ± 11%
- percent injected dose in the urine at 180 min (3 h) ([3]; 180 min after injection): 91 ± 6%
- Left cortical TTP [4, 11]: 2.46 ± 0.73 min
- Left cortical TTP (min) [4, 11]: 2.46 (0.73) min
- Right cortical TTP [4, 12]: 1.98 ± 0.60 min
- Right cortical TTP (min) [4, 12]: 1.98 (0.6) min
- cortical 20 min/max ([4]; healthy volunteers, kidney side not specified): 0.10
- Left kidney 20 min/max ([4]; whole-kidney region of interest, 20 min-to-maximum count ratio, n = 9, mean (SD)): 0.11 (0.03)
- Right kidney TTP (min) ([4]; whole-kidney region of interest, n = 9, mean (SD)): 2.8 (1.6) min
- Left kidney Uptake % [4, 13]: 49.0 ± 4.1% and 49.0 (4.1) %
- Right kidney Uptake % [4, 13]: 51.0 (4.1) %
- Left kidney TTP (min) ([4]; whole-kidney region of interest, time to peak of renogram, n = 9, mean (SD)): 2.6 (0.6) min
Structure (SMILES): O=C(O)CNC(=O)c1ccccc1[131I] [^131I-OIH, ^131I ortho-iodohippuran]
- mean plasma clearance ([5]; earlier study of healthy volunteers): 530 mL/min

Structure (SMILES): O=C([O-])CN=C([O-])CN=C([O-])CN=C([O-])C[S-].[O-2].[Tc+4] [^99mTc-MAG3, ^99mTc-mercaptoacetyltriglycine]
- cortical 20 min/max [6]: 0.19
- camera-based clearance [7]: 321 ± 69 mL/min/1.73 m^2
- extraction fraction [8]: 40%-60%
- clearance as percentage of the clearance of 131I-OIH [5]: 50%-60%
- plasma clearance as percentage of the 131I-OIH clearance ([5]; multiple studies): 50–60%

Structure (SMILES): O=C([O-])CN(CCN(CC(=O)[O-])CC(=O)[O-])CCN(CC(=O)[O-])CC(=O)[O-].[99Tc+4] [^99mTc-DTPA, ^99mTc-diethyltriaminepentaacetic acid]
- extraction fraction [8]: 20%

Structure (SMILES): O=C(O)CN(CC(=O)O)CC(=O)O [NTA, Nitrilotriacetic acid]
- adverse effects after ingestion [9]: No adverse effects
- acceptable daily intake in drinking water [10]: 10 μg/kg of body weight per day
